From patent publication US10400285B2, “DDX43 as a biomarker of resistance to MEK1/2 inhibitors” (Memorial Sloan-Kettering Cancer Center, priority 2013, dated 2019)

Tested on: Res-Omm1.3 and Res-Mel270 cells
Experiment: Cell viability assay (CCK8), MEKi-resistant cells
Format: cell-based
Protocol: Cells were plated in 96-well plates, and treated with the indicated concentrations of drugs. […] Cell viability is expressed as a percentage of untreated cells.
To explore mechanisms of drug resistance, MEKi-resistant GNAQ-mutant cell lines were generated by exposing the cells to increasing concentrations of selumetinib for at least four weeks and routinely grown in 1 μM selumetinib, without clonal selection. After continuous exposure, the cell lines Res-Omm1.3 and Res-Mel270 became resistant to selumetinib compared to their parental cells Omm1.3 and Mel270 (FIG. 2A, B).

NC1(c2ccc(-c3nc4ccn5c(=O)[nH]nc5c4cc3-c3ccccc3)cc2)CCC1 [MK2206]
sensitivity to AKTi when combined with MEKi (MK2206 with selumetinib, FIG. 6): sustained
cell viability with AKTi compared to the parental lines (increasing concentrations of MK2206, FIG. 6): Decreased viability

O=C(NOC[C@H](O)CO)c1ccc(F)c(F)c1Nc1ccc(I)cc1F [PD0325901]
cell viability: resistance to MEK inhibitor compared to parental cells (increasing doses, 4 days, FIG. 2A, B and FIG. 7): cross resistance

Cn1cnc2c(F)c(Nc3ccc(Br)cc3Cl)c(C(=O)NOCCO)cc21 [selumetinib]
IC50 of resistant cells relative to their sensitive counterparts (Res-Omm1.3 and Res-Mel270 vs parental Omm1.3 and Mel270, cell viability): 10 fold
